Measurements as given in patent US9469650B2, “Melampomagnolide B derivatives” (BOARD OF TRUSTEES OF THE UNIVERSITY OF ARKANSAS, priority 2013, dated 2016).

How the values were obtained:
NCI/ADR-RES = experiment: panel of 60 human tumor cell lines, growth inhibition (Ovarian Cancer)
NCI-H460 = experiment: panel of 60 human tumor cell lines, growth inhibition (Non-Small Cell Lung Cancer); details: NCI-H460
CCRF-CEM = experiment: panel of 60 human tumor cell lines, growth inhibition (Leukemia)
MOLT-4 = experiment: as above; details: MOLT-4
ACHN = experiment: panel of 60 human tumor cell lines, growth inhibition (Renal Cancer)
SR = experiment: panel of 60 human tumor cell lines, growth inhibition (Leukemia)
COLO 205 = experiment: panel of 60 human tumor cell lines, growth inhibition (Colon Cancer); details: COLO 205
MDA-MB-468 = experiment: panel of 60 human tumor cell lines, growth inhibition (Breast Cancer); details: MDA-MB-468
HS 578T = experiment: as above
SK-MEL-5 = experiment: panel of 60 human tumor cell lines, growth inhibition (Melanoma); details: 8K-MEL-5
NCI-H23 = experiment: panel of 60 human tumor cell lines, growth inhibition (Non-Small Cell Lung Cancer); details: NCI-H23
SF-539 = experiment: panel of 60 human tumor cell lines, growth inhibition (CNS Cancer); details: SF-539
HT29 = experiment: panel of 60 human tumor cell lines, growth inhibition (Colon Cancer); details: HT29
T-47D = experiment: panel of 60 human tumor cell lines, growth inhibition (Breast Cancer); details: T-47D
TK-10 = experiment: panel of 60 human tumor cell lines, growth inhibition (Renal Cancer); details: TK-10
KM12 = experiment: panel of 60 human tumor cell lines, growth inhibition (Colon Cancer); details: KM12
MDA-MB-435 = experiment: panel of 60 human tumor cell lines, growth inhibition (Melanoma); details: MDA-MB-435
SK-MEL-28 = experiment: as above; details: SK-MEL-28
OVCAR-8 = experiment: panel of 60 human tumor cell lines, growth inhibition (Ovarian Cancer); details: OVCAR-8

Q: What does the source list for `C=C1C(=O)O[C@H]2[C@H]1CC/C(COC(=O)NCCN1CCCCC1)=C\CC[C@@]1(C)O[C@@H]21` [JVM 2-13]?
A: GI50 (NCI/ADR-RES): 31.2 µM; TGI (NCI/ADR-RES): >100 µM; Percent Growth (NCI/ADR-RES; Log10 Concentration −4.0): 4%; Percent Growth (NCI/ADR-RES; Log10 Concentration −5.0): 95%; Percent Growth (NCI/ADR-RES; Log10 Concentration −6.0): 103%; Percent Growth (NCI/ADR-RES; Log10 Concentration −7.0): 107%; Percent Growth (NCI/ADR-RES; Log10 Concentration −8.0): 103%; TGI (NCI-H460): 36.5 µM; Percent Growth (NCI-H460; Log10 Concentration −4.0): −66%; Percent Growth (NCI-H460; Log10 Concentration −5.0): 85%; Percent Growth (NCI-H460; Log10 Concentration −6.0): 100%; Percent Growth (NCI-H460; Log10 Concentration −7.0): 100%; Percent Growth (NCI-H460; Log10 Concentration −8.0): 102%; GI50 (CCRF-CEM): 3.03 µM; TGI (CCRF-CEM): 12.1 µM; Percent Growth (CCRF-CEM; Log10 Concentration −4.0): −41%; Percent Growth (CCRF-CEM; Log10 Concentration −5.0): 4%; Percent Growth (CCRF-CEM; Log10 Concentration −6.0): 93%; Percent Growth (CCRF-CEM; Log10 Concentration −7.0): 109%; Percent Growth (CCRF-CEM; Log10 Concentration −8.0): 104%; TGI (MOLT-4): 13.3 µM; Percent Growth (MOLT-4; Log10 Concentration −4.0): −49%; Percent Growth (MOLT-4; Log10 Concentration −5.0): 7%; Percent Growth (MOLT-4; Log10 Concentration −6.0): 95%; Percent Growth (MOLT-4; Log10 Concentration −7.0): 116%; Percent Growth (MOLT-4; Log10 Concentration −8.0): 100%; GI50 (ACHN): 2.76 µM; TGI (ACHN): 12.3 µM; Percent Growth (ACHN; Log10 Concentration −4.0): −80%; Percent Growth (ACHN; Log10 Concentration −5.0): 8%; Percent Growth (ACHN; Log10 Concentration −6.0): 83%; Percent Growth (ACHN; Log10 Concentration −7.0): 97%; Percent Growth (ACHN; Log10 Concentration −8.0): 94%; TGI (SR): 15.4 µM; Percent Growth (SR; Log10 Concentration −4.0): −47%; Percent Growth (SR; Log10 Concentration −5.0): 11%; Percent Growth (SR; Log10 Concentration −6.0): 75%; Percent Growth (SR; Log10 Concentration −7.0): 95%; Percent Growth (SR; Log10 Concentration −8.0): 118%; GI50 (COLO 205): 1.79 µM; TGI (COLO 205): 1.73 µM; Percent Growth (COLO 205; Log10 Concentration −4.0): −75%; Percent Growth (COLO 205; Log10 Concentration −5.0): −67%; Percent Growth (COLO 205; Log10 Concentration −6.0): 90%; Percent Growth (COLO 205; Log10 Concentration −7.0): 101%; Percent Growth (COLO 205; Log10 Concentration −8.0): 92%; GI50 (MDA-MB-468): 1.41 µM; TGI (MDA-MB-468): 4.47 µM; Percent Growth (MDA-MB-468; Log10 Concentration −4.0): −68%; Percent Growth (MDA-MB-468; Log10 Concentration −5.0): −35%; Percent Growth (MDA-MB-468; Log10 Concentration −6.0): 65%; Percent Growth (MDA-MB-468; Log10 Concentration −7.0): 95%; Percent Growth (MDA-MB-468; Log10 Concentration −8.0): 99%; GI50 (HS 578T): 18.4 µM; TGI (HS 578T; HS 57BT): 66 µM; Percent Growth (HS 578T; HS 57BT, Log10 Concentration −4.0): −16%; Percent Growth (HS 578T; HS 57BT, Log10 Concentration −5.0): 74%; Percent Growth (HS 578T; HS 57BT, Log10 Concentration −6.0): 89%; Percent Growth (HS 578T; HS 57BT, Log10 Concentration −7.0): 87%; Percent Growth (HS 578T; HS 57BT, Log10 Concentration −8.0): 92%; GI50 (SK-MEL-5): 15.8 µM; TGI (SK-MEL-5): 30.4 µM; Percent Growth (SK-MEL-5; Log10 Concentration −4.0): −91%; Percent Growth (SK-MEL-5; Log10 Concentration −5.0): 85%; Percent Growth (SK-MEL-5; Log10 Concentration −6.0): 99%; Percent Growth (SK-MEL-5; Log10 Concentration −7.0): 101%; Percent Growth (SK-MEL-5; Log10 Concentration −8.0): 100%; GI50 (NCI-H23): 11.3 µM; TGI (NCI-H23): 27.2 µM; Percent Growth (NCI-H23; Log10 Concentration −4.0): −74%; Percent Growth (NCI-H23; Log10 Concentration −5.0): 57%; Percent Growth (NCI-H23; Log10 Concentration −6.0): 104%; Percent Growth (NCI-H23; Log10 Concentration −7.0): 100%; Percent Growth (NCI-H23; Log10 Concentration −8.0): 98%; GI50 (SF-539): 3.23 µM; TGI (SF-539): 13.1 µM; Percent Growth (SF-539; Log10 Concentration −4.0): −78%; Percent Growth (SF-539; Log10 Concentration −5.0): 10%; Percent Growth (SF-539; Log10 Concentration −6.0): 91%; Percent Growth (SF-539; Log10 Concentration −7.0): 91%; Percent Growth (SF-539; Log10 Concentration −8.0): 92%; GI50 (HT29): 3.76 µM; TGI (HT29): 13 µM; Percent Growth (HT29; Log10 Concentration −4.0): −75%; Percent Growth (HT29; Log10 Concentration −5.0): 10%; Percent Growth (HT29; Log10 Concentration −6.0): 104%; Percent Growth (HT29; Log10 Concentration −7.0): 100%; Percent Growth (HT29; Log10 Concentration −8.0): 100%; GI50 (T-47D): 2.38 µM; TGI (T-47D): 12.6 µM; Percent Growth (T-47D; Log10 Concentration −4.0): −65%; Percent Growth (T-47D; Log10 Concentration −5.0): 7%; Percent Growth (T-47D; Log10 Concentration −6.0): 76%; Percent Growth (T-47D; Log10 Concentration −7.0): 88%; Percent Growth (T-47D; Log10 Concentration −8.0): 82%; GI50 (TK-10): 2.88 µM; TGI (TK-10): 11.1 µM; Percent Growth (TK-10; Log10 Concentration −4.0): −94%; Percent Growth (TK-10; Log10 Concentration −5.0): 5%; Percent Growth (TK-10; Log10 Concentration −6.0): 89%; Percent Growth (TK-10; Log10 Concentration −7.0): 103%; Percent Growth (TK-10; Log10 Concentration −8.0): 105%; GI50 (KM12): 14.4 µM; TGI (KM12): 29.8 µM; Percent Growth (KM12; Log10 Concentration −4.0): −83%; Percent Growth (KM12; Log10 Concentration −5.0): 75%; Percent Growth (KM12; Log10 Concentration −6.0): 101%; Percent Growth (KM12; Log10 Concentration −7.0): 106%; Percent Growth (KM12; Log10 Concentration −8.0): 106%; GI50 (MDA-MB-435): 4.13 µM; TGI (MDA-MB-435): 16.7 µM; Percent Growth (MDA-MB-435; Log10 Concentration −4.0): −93%; Percent Growth (MDA-MB-435; Log10 Concentration −5.0): 27%; Percent Growth (MDA-MB-435; Log10 Concentration −6.0): 87%; Percent Growth (MDA-MB-435; Log10 Concentration −7.0): 97%; Percent Growth (MDA-MB-435; Log10 Concentration −8.0): 95%; GI50 (SK-MEL-28): 3.35 µM; TGI (SK-MEL-28): 14 µM; Percent Growth (SK-MEL-28; Log10 Concentration −4.0): −81%; Percent Growth (SK-MEL-28; Log10 Concentration −5.0): 14%; Percent Growth (SK-MEL-28; Log10 Concentration −6.0): 90%; Percent Growth (SK-MEL-28; Log10 Concentration −7.0): 100%; Percent Growth (SK-MEL-28; Log10 Concentration −8.0): 98%; GI50 (OVCAR-8): 5.07 µM; TGI (OVCAR-8): 20 µM; Percent Growth (OVCAR-8; Log10 Concentration −4.0): −75%; Percent Growth (OVCAR-8; Log10 Concentration −5.0): 32%; Percent Growth (OVCAR-8; Log10 Concentration −6.0): 93%; Percent Growth (OVCAR-8; Log10 Concentration −7.0): 97%; Percent Growth (OVCAR-8; Log10 Concentration −8.0): 100%
